pIC50: −log10 of the molar value. Where two headings read alike, the source gives them in different places.
System: PKMYT1 (CDK1 pThr14) in FUOV1 cells
Experiment: PKMYT1 cell-based activity assay, CDK1 pThr14 AlphaLISA in FUOV1 cells
Conditions: read-out: FUOV-1 CDK1 pThr14 IC50
Protocol: To determine compound IC50 (PKMYT1 cell-based activity assay, CDK1 pThr14 AlphaLISA), FUOV1 cells were plated into a 96-well TC-treated culture plate at 50000 cells/well in a final volume of 100 μL of media. The plates were then allowed to equilibrate in a biological safety cabinet for 30 minutes before being placed in a humidified incubator at 37 C and 5% CO2 overnight. The next day, 2 μL of PKMYT1 inhibitors or DMSO were diluted in 400 μL of warmed culture media in a 96-well block using a Biomek FX liquid handler. Compounds were mixed in media and then 25 μL was dispensed into each well of the 96-well cell plate. Plates were centrifuged at 300 g for 10 seconds and then placed in the incubator for 2 hours. After the 2-hour incubation with compound, media was removed via aspiration using a multichannel pipette. 30 μL of 1× AlphaLISA lysis buffer (Perkin Elmer) supplemented with protease and phosphatase inhibitors as well as 1 mM PMSF, was added to each well. Plates were rotated at 500 g for 20 minutes to facilitate lysis. Plates were then sealed with aluminum foil and frozen at −80° C. for at least 1 hour. Lysates were thawed at 37° C. for 10 minutes, then 10 μL of each lysate was transferred in duplicate to a white 384-well assay plate. Antibody mixture was prepared in 1× AlphaLISA assay buffer (Perkin Elmer) containing antibodies (5 nM final concentration for rabbit pThr14-CDK1 from Abcam #ab58509 and mouse total CDK1 from ThermoFisher Scientific #33-1800). 5 μL of antibody mixture was added to each well of the assay plate. The assay plate was sealed and stored at 4° C. overnight. The next day, AlphaLISA bead mixture (Perkin Elmer) was prepared in 1× AlphaLISA assay buffer. Anti-rabbit IgG Acceptor (Perkin Elmer #AL104C) and anti-mouse IgG Donor beads (Perkin Elmer #AS104D) were prepared to a concentration of 80 μg/ml in assay buffer. 5 μL of bead mixture was added to each well of the assay plate (20 μg/ml final concentration for each bead). The plate was protected from light and incubated for 2 hours at room temperature. After a 2-hour incubation with beads, the plate was read using the Perkin Elmer EnVision Multimode plate reader with excitation at 680 nm and emission at 615 nm.

pIC50 (2 h, 2 h compound incubation)	pIC50 (2 h, 2 hours with compound)	SMILES	also measured
7.02		Cc1ccc2[nH]ncc2c1-c1nc(-c2cccnc2Nc2cccc(S(N)(=O)=O)c2)nc(C(N)=O)c1N [Compound 631]	
	6.95	Cc1ccc2[nH]ncc2c1-c1nc(-c2cc(F)cnc2N[C@@H](C)C(F)(F)F)nc(C(N)=O)c1N [Compound 888]	
6.06		Cc1ccc2[nH]ncc2c1-c1nc(-c2cc(F)c(F)cc2NC2CCCC2(C)C)nc(C(N)=O)c1N (centres unmarked) [Compound 488]	
	6.92	Cc1ccc2[nH]ncc2c1-c1nc(-c2ccc(F)cc2N[C@H]2C[C@@](C)(O)C2)nc(C(N)=O)c1N [Compound 862]	
	7.66	COc1cc(-c2nc(C(N)=O)c(N)c(-c3c(C)ccc4[nH]ncc34)n2)c(Nc2ncccc2F)cn1 [Compound 976, 5-amino-2-(5-((3-fluoropyridin-2-yl)amino)-2-methoxypyridin-4-yl)-6-(5-methyl-1H-indazol-4-yl)pyrimidine-4-carboxamide]	
	8.05	Cc1ccc2[nH]ncc2c1-c1nc(-c2cc(Cl)ncc2Nc2ncccc2F)nc(C(N)=O)c1N [Compound 939]	
	9.00	Cc1ccc(-c2nc(C(N)=O)c(N)c(-c3c(F)ccc4[nH]ncc34)n2)c(Nc2ncccc2F)n1 [Compound 952]	
	8.10	[2H]C([2H])([2H])c1ccc2[nH]ncc2c1-c1nc(-c2ccc(C(F)F)nc2Nc2ncccc2F)nc(C(N)=O)c1N [Compound 959]	
	6.73	[2H]C([2H])([2H])c1ccc2[nH]ncc2c1-c1nc(-c2ccc(C3CC3)nc2Nc2ncccn2)nc(C(N)=O)c1N [Compound 974, 5-amino-2-(6-cyclopropyl-2-(pyrimidin-2-ylamino)pyridin-3-yl)-6-(5-(methyl-d3)-1H-indazol-4-yl)pyrimidine-4-carboxamide]	
		Cc1ccc2[nH]ncc2c1-c1nc(-c2cccnc2Nc2cccnc2)nc(C(N)=O)c1N [Compound 595]	pIC50 (2 h compound incubation): 5.81
	6.40	NC(=O)c1nc(-c2cccnc2NCC(F)(F)F)nc(-c2c(Cl)c(F)cc3[nH]ncc23)c1N [Compound 942]	
7.40		Cc1ccc2[nH]ncc2c1-c1nc(-c2cc(F)cnc2N[C@H]2C[C@](C)(O)C2)nc(C(N)=O)c1N [Compound 748]	
8.52		Cc1ccc2[nH]ncc2c1-c1nc(-c2cccnc2Nc2nc(C#N)ccc2Cl)nc(C(N)=O)c1N [Compound 743]	
5.34		Cc1ccc2[nH]ncc2c1-c1nc(-c2ccc(F)cc2Nc2nccc(C(C)(C)C)n2)nc(C(N)=O)c1N [Compound 576]	
		Cc1ccc2[nH]ncc2c1-c1nc(-c2cc(F)cnc2N[C@@H]2C[C@@H]3CC[C@H]2O3)nc(C(N)=O)c1N [Compound 890]	pIC50 (2 hours with compound): 7.09
6.41		Cc1cc(C)nc(Nc2cc(F)ccc2-c2nc(C(N)=O)c(N)c(-c3c(C)ccc4[nH]ncc34)n2)n1 [Compound 567]	
6.84		Cc1ccc2[nH]ncc2c1-c1nc(-c2ccccc2Nc2ncc(F)cn2)nc(C(N)=O)c1N [Compound 494]	
< 5.00		Cc1ccc2[nH]ncc2c1-c1nc(-c2cnncc2NCC(F)(F)F)nc(C(N)=O)c1N [Compound 669]	
6.24		Cc1ccc2[nH]ncc2c1-c1nc(-c2cc(F)ccc2Nc2cnn(C)c2)nc(C(N)=O)c1N [Compound 521]	

pIC50 (2 h, 2 h compound incubation)	pIC50 (2 h, 2 hours with compound)	SMILES	also measured
	7.38	Cc1ccc(-c2nc(C(N)=O)c(N)c(-c3c(Cl)ccc4[nH]ncc34)n2)c(Nc2ncccn2)n1 [Compound 950]	
7.29		Cc1ccc2[nH]ncc2c1-c1nc(-c2cccnc2N[C@H]2CCOC[C@@H]2F)nc(C(N)=O)c1N [Compound 648]	
8.40		Cc1ccc2[nH]ncc2c1-c1nc(-c2ccc(F)cc2Nc2ncncc2C#N)nc(C(N)=O)c1N [Compound 655]	
7.47		Cc1cccnc1Nc1nc(C#N)ccc1-c1nc(C(N)=O)c(N)c(-c2c(C)ccc3[nH]ncc23)n1 [Compound 737]	
7.04		Cc1ccc(Nc2ncccn2)c(-c2nc(C(N)=O)c(N)c(-c3c(C)ccc4[nH]ncc34)n2)c1 [Compound 646]	
< 5.00		Cc1ccc2[nH]ncc2c1-c1nc(-c2cc(F)cnc2NC2CC3(COC3)C2)nc(C(N)=O)c1N [Compound 713]	
	7.55	Cc1ccc2[nH]ncc2c1-c1nc(-c2ccc(Cl)nc2Nc2ncccc2C(F)F)nc(C(N)=O)c1N [Compound 944]	
7.19		Cc1ccc2[nH]ncc2c1-c1nc(-c2cc(F)cnc2NCC(C)(C)O)nc(C(N)=O)c1N [Compound 683]	
6.64		CO[C@H]1C[C@@H](Nc2ncccc2-c2nc(C(N)=O)c(N)c(-c3c(C)ccc4[nH]ncc34)n2)C1 [Compound 548]	
	7.92	COc1nccnc1Nc1nc(Cl)ccc1-c1nc(C(N)=O)c(N)c(-c2c(C)ccc3[nH]ncc23)n1 [Compound 826]	
< 5.00		COc1ccccc1-c1nc(C(N)=O)c(N)c(-c2c(C)ccc3[nH]ncc23)n1 [Compound 777]	
	7.33	Cc1ccc2[nH]ncc2c1-c1nc(-c2cccnc2N[C@H]2C[C@@](C)(O)C2)nc(C(N)=O)c1N [Compound 918]	
6.64		Cc1ccc2[nH]ncc2c1-c1nc(-c2cc(F)cnc2NCC2(O)CCC2)nc(C(N)=O)c1N [Compound 691]	
7.23		Cc1ccc2[nH]ncc2c1-c1nc(-c2cc(F)ccc2NS(=O)(=O)C(C)C)nc(C(N)=O)c1N [Compound 530]	
6.82		CO[C@H]1C[C@H](Nc2ncccc2-c2nc(C(N)=O)c(N)c(-c3c(C)ccc4[nH]ncc34)n2)C1 [Compound 551]	
6.03		Cc1ccc2[nH]ncc2c1-c1nc(-c2cccnc2NCCS(C)(=O)=O)nc(C(N)=O)c1N [Compound 543]	
7.66		Cc1ccc2[nH]ncc2c1-c1nc(-c2cc(F)cnc2N[C@H]2CC[C@@](C)(O)CC2)nc(C(N)=O)c1N [Compound 723]	
5.59		Cc1ccnc(Nc2c(C)cccc2-c2nc(C(N)=O)c(N)c(-c3c(C)ccc4[nH]ncc34)n2)n1 [Compound 775]	
	7.47	COc1ccc(F)c(Nc2nc(F)ccc2-c2nc(C(N)=O)c(N)c(-c3c(C)ccc4[nH]ncc34)n2)n1 [Compound 922]	

pIC50 (2 h, 2 h compound incubation)	pIC50 (2 h, 2 hours with compound)	SMILES	also measured
6.22		COc1ccccc1Nc1ncccc1-c1nc(C(N)=O)c(N)c(-c2c(C)ccc3[nH]ncc23)n1 [Compound 632]	
7.37		Cc1ccc2[nH]ncc2c1-c1nc(-c2cccnc2N[C@H]2[C@@H]3COC[C@@H]32)nc(C(N)=O)c1N [Compound 545]	
	6.27	Cc1ccc2[nH]ncc2c1-c1nc(-c2cc(F)cnc2NCCN2CCCC2)nc(C(N)=O)c1N [Compound 853]	
6.78		Cc1ccc2[nH]ncc2c1-c1nc(-c2ccncc2NC(=O)C(C)(C)C)cc(C(N)=O)c1N [Compound 507, 5-amino-6-(5-methyl-1H-indazol-4-yl)-3′-pivalamido-[2,4′-bipyridine]-4-carboxamide]	
	8.15	Cc1c(F)cc2[nH]ncc2c1-c1nc(-c2ccc(F)nc2Nc2nc(C(F)F)ccc2F)nc(C(N)=O)c1N [Compound 858]	
8.00		Cc1ccc2[nH]ncc2c1-c1nc(-c2cccnc2N[C@H]2CCOC[C@H]2F)nc(C(N)=O)c1N [Compound 644]	
6.92		Cc1ccc2[nH]ncc2c1-c1nc(-c2ccc(F)cc2Nc2ncnc(C)c2C#N)nc(C(N)=O)c1N [Compound 639]	
	7.26	Cc1ccc2[nH]ncc2c1-c1nc(-c2cc(F)cnc2NC2CCN(C)CC2)nc(C(N)=O)c1N [Compound 838]	
7.92		Cc1ccc2[nH]ncc2c1-c1nc(-c2ccc(C#N)cc2Nc2ncccn2)nc(C(N)=O)c1N [Compound 645]	
	8.10	NC(=O)c1nc(-c2ccc(Cl)nc2Nc2ncccc2F)nc(-c2c(F)ccc3[nH]ncc23)c1N [Compound 965]	
5.87		Cc1ccc2[nH]ncc2c1-c1nc(-c2cc(F)ccc2NS(=O)(=O)C2CC(F)(F)C2)nc(C(N)=O)c1N [Compound 514]	
6.81		Cc1ccc2[nH]ncc2c1-c1nc(-c2cccnc2Nc2ncccc2CC#N)nc(C(N)=O)c1N [Compound 741]	
7.92		Cc1ccc2[nH]ncc2c1-c1nc(-c2cc(F)cnc2N[C@@H]2CCOC2)nc(C(N)=O)c1N [Compound 685]	
6.32		Cc1ccc(-c2nc(C(N)=O)c(N)c(-c3c(C)ccc4[nH]ncc34)n2)c(Nc2cncc(Cl)n2)n1 [Compound 725]	
7.48		Cc1ccc2[nH]ncc2c1-c1nc(-c2cc(F)cnc2NCC2(C#N)CC2)nc(C(N)=O)c1N [Compound 705]	
	7.27	Cc1ccc2[nH]ncc2c1-c1nc(-c2cc(Cl)ncc2NC2CC(F)(F)C2)nc(C(N)=O)c1N [Compound 840]	
8.22		Cc1ccc2[nH]ncc2c1-c1nc(-c2cccnc2NC2(C)CCOCC2)nc(C(N)=O)c1N [Compound 544]	
7.42		Cc1ccnnc1Nc1ncccc1-c1nc(C(N)=O)c(N)c(-c2c(C)ccc3[nH]ncc23)n1 [Compound 563]	

— patent publication US20250304537A1 (Repare Therapeutics Inc., priority 2022, published 2025)
